In publication PMC6073332 (2018):

What was measured:
[1] = test system: duplex III (= I + II) (DNA, duplex) CTCTCTTGTCTTCTC/GAGAAGACAAGAGAG; test: CD; settings: Na+ 100 mM (NaClO4) in incubation stock, 50 mM TEAA pH 7, 310 K, 24 h, diluted to 5 μM duplex, covalent
[2] = test system: single strand I (-T7G8T9-) (DNA, single strand) CTCTCTTGTCTTCTC; test: HPLC-UV peak areas, two-step stoichiometric fit; settings: none listed (50 mM triethylammonium acetate buffer only); 50 mM TEAA pH 7, 310 K, 24 h; covalent; site 1 of 2 (G8)
[3] = test system: single strand II (complement of I) (DNA, single strand) GAGAAGACAAGAGAG; test: HPLC-ESI-MS; settings: 50 mM TEAA pH 7, 310 K, 24 h; Ru/II 1.0 or 3.0; covalent
[4] = test system: single strand IV (-T7G8A9-) (DNA, single strand) CTCTCTTGACTTCTC; test: HPLC-UV peak areas, two-step stoichiometric fit; settings: none listed (50 mM triethylammonium acetate buffer only); 50 mM TEAA pH 7, 310 K, 24 h; covalent; site 1 of 2 (G8)
[5] = test system: single strand VII (-C7G8C9-) (DNA, single strand) CTCTCTCGCCTTCTC; test: HPLC-UV peak areas, two-step stoichiometric fit; settings: none listed (50 mM triethylammonium acetate buffer only); 50 mM TEAA pH 7, 310 K, 24 h; covalent; site 1 of 2 (G8)
[6] = test system: single strand IX (-A7G8A9-) (DNA, single strand) CTCTCTAGACTTCTC; test: HPLC-UV peak areas, two-step stoichiometric fit; settings: none listed (50 mM triethylammonium acetate buffer only); 50 mM TEAA pH 7, 310 K, 24 h; covalent; site 1 of 2 (G8)
[7] = test system: duplex III (= I + II) (DNA, duplex) CTCTCTTGTCTTCTC/GAGAAGACAAGAGAG; test: HPLC-ESI-MS (denaturing); settings: Na+ 100 mM (NaClO4); 50 mM TEAA pH 7, 310 K, 48 h; Ru/III 1.0 or 6.0; covalent
[8] = test system: single strand VIII (-A7G8T9-) (DNA, single strand) CTCTCTAGTCTTCTC; test: HPLC-UV peak areas, two-step stoichiometric fit; settings: none listed (50 mM triethylammonium acetate buffer only); 50 mM TEAA pH 7, 310 K, 24 h; covalent; site 1 of 2 (G8)
[9] = test system: single strand V (-C7G8A9-) (DNA, single strand) CTCTCTCGACTTCTC; test: HPLC-UV peak areas, two-step stoichiometric fit; settings: none listed (50 mM triethylammonium acetate buffer only); 50 mM TEAA pH 7, 310 K, 24 h; covalent; site 1 of 2 (G8)
[10] = test system: single strand VI (-A7G8C9-) (DNA, single strand) CTCTCTAGCCTTCTC; test: HPLC-UV peak areas, two-step stoichiometric fit; settings: none listed (50 mM triethylammonium acetate buffer only); 50 mM TEAA pH 7, 310 K, 24 h; covalent; site 1 of 2 (G8)

K1 [2] | binding [3] | binding [7] | also measured | SMILES
 |  |  | binding ([1]; Pt/III 6.0): yes | N.N.[Cl-].[Cl-].[Pt+2]
2.52 ± 0.13 × 10^4 M^−1 | yes |  |  | NCCN.[Cl-].[Ru+2].c1ccc2c(c1)CCC2
2.92 ± 0.46 × 10^4 M^−1 | yes | yes | K1 [4]: 3.99 ± 0.31 × 10^4 M^−1; K1 [5]: 4.75 ± 0.53 × 10^4 M^−1; K1 [6]: 3.61 ± 0.39 × 10^4 M^−1; K1 [8]: 5.74 ± 0.44 × 10^4 M^−1; K1 [9]: 2.81 ± 0.55 × 10^4 M^−1; K1 [10]: 3.33 ± 0.37 × 10^4 M^−1 | NCCN.[Cl-].[Ru+2].c1ccc(-c2ccccc2)cc1
0.79 ± 0.04 × 10^4 M^−1 | yes | yes |  | NCCN.[Cl-].[Ru+2].c1ccccc1
3.94 ± 0.24 × 10^4 M^−1 | yes |  | binding ([1]; Ru/III up to 6.0): yes | Cc1ccc(C(C)C)cc1.NCCN.[Cl-].[Ru+2]
